Assay results reported in patent publication US8669361B2, “Pyrazol-4-yl-heterocyclyl-carboxamide compounds and methods of use” (Genentech, Inc., priority 2010, dated 2014).
Where two headings read alike, the source gives them in different places.

Columns and labels:
PIM2 = PIM2 (Homo sapiens (Human), UniProt Q9P1W9); assay: Pim kinase binding activity, Caliper LC3000 microfluidic peptide phosphorylation assay (Example 901); assay type: biochemical; conditions: 50 pM PIM2, 1 μM FAM-peptide, 10 μM ATP, 90 minutes at room temperature; read-out: PIM2 LC3K (KI)
PIM2, sequence (Q9P1W9 whole entry): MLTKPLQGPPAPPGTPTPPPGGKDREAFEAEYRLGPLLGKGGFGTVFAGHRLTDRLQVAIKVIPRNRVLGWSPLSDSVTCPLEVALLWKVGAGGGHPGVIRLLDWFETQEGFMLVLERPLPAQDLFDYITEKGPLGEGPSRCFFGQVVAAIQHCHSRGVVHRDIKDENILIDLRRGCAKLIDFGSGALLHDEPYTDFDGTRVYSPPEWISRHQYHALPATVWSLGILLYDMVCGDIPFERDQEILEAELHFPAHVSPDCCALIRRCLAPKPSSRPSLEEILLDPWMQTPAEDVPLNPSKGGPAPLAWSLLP
Experimental: (§1) A fluorescent-labeled Pim-specific peptide substrate, was custom synthesized by American Peptide Company (Sunnyvale, Calif.). Reaction Buffer contained 10 mM HEPES, pH 7.2, 10 mM MgCl2, 0.01% Tween 20, 2 mM DTT. Termination Buffer contained 190 mM HEPES, pH 7.2, 0.015% Brij-35, 0.2% Coating Reagent 3 (Caliper Life Sciences, Hopkinton, Mass.), 20 mM EDTA. Separation Buffer contained 100 mM HEPES, pH 7.2, 0.015% Brij-35, 0.1% Coating Reagent 3, 1:200 Coating Reagent 8 (Caliper Life Sciences, Hopkinton, Mass.), 10 mM EDTA and 5% DMSO.
PIM reactions were carried out in a final volume of 10 μL per well in a 384-well plate. […] After 90 minutes of incubation at room temperature, the phosphorylation reaction was stopped by the addition of 10 μL Termination Buffer. The product and substrate in each independent reaction were separated on a 12-sipper microfluidic chip (Caliper Life Sciences, Hopkinton, Mass.) run on a Caliper LC3000® (Caliper Life Sciences, Hopkinton, Mass.). The separation of product and substrate was optimized by choosing voltages and pressure using Caliper's Optimizer software (Hopkinton, Mass.). The separation conditions used a downstream voltage of −500V, an upstream voltage of −2150V, and a screening pressure of −1.2 psi. […] Substrate conversion was calculated from the electropherogram using HTS Well Analyzer software (Caliper Life Sciences, Hopkinton, Mass.). Ki values for the test compound were calculated.

PIM1 = PIM1 (Homo sapiens (Human), UniProt P11309); assay: as above; assay type: biochemical; conditions: 20 pM PIM1, 1 μM FAM-peptide, 10 μM ATP, 90 minutes at room temperature; read-out: PIM1 LC3K (KI)
PIM1, sequence (P11309 whole entry, the tested form may be a part): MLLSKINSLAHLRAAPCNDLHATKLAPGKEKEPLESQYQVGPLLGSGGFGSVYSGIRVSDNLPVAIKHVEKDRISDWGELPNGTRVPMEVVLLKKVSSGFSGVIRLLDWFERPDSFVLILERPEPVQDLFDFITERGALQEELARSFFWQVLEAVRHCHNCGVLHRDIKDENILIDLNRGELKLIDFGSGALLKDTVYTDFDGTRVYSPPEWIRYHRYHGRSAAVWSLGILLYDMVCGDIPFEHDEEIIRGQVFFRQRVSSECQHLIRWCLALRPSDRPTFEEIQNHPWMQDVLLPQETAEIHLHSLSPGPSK
Experimental: as §1, with “PIM-1, -2, and -3 enzymes were generated as fusion proteins expressed in bacteria and purified by IMAC column chromatography (Sun, X., Chiu, J. F., and He, Q. Y. (2005) Expert Rev. Proteomics, 2:649-657). A fluorescent-labeled” for “A fluorescent-labeled”
(§2) PIM reactions were carried out in a final volume of 10 μL per well in a 384-well plate. A standard enzymatic reaction, initiated by the addition of 5 μL 2×ATP and test compound to 5 μL of 2× enzyme and FAM-peptide, contained 20 pM PIM1, 50 pM PIM2, or 55 pM PIM3, 1 μM FAM-peptide, and 10 μM ATP, in Reaction Buffer. After 90 minutes of incubation at room temperature, the phosphorylation reaction was stopped by the addition of 10 μL Termination Buffer. The product and substrate in each independent reaction were separated on a 12-sipper microfluidic chip (Caliper Life Sciences, Hopkinton, Mass.) run on a Caliper LC3000® (Caliper Life Sciences, Hopkinton, Mass.). The separation of product and substrate was optimized by choosing voltages and pressure using Caliper's Optimizer software (Hopkinton, Mass.). The separation conditions used a downstream voltage of −500V, an upstream voltage of −2150V, and a screening pressure of −1.2 psi. The product and substrate fluorophore were excited at 488 nm and detected at 530 nm. Substrate conversion was calculated from the electropherogram using HTS Well Analyzer software (Caliper Life Sciences, Hopkinton, Mass.). Ki values for the test compound were calculated.

PIM3 = PIM3 (Homo sapiens (Human), UniProt Q86V86); assay: as above; assay type: biochemical; conditions: 55 pM PIM3, 1 μM FAM-peptide, 10 μM ATP, 90 minutes at room temperature; read-out: PIM3 LC3K (KI)
Experimental: as §1, with “PIM-1, -2, and -3 enzymes were generated as fusion proteins expressed in bacteria and purified by IMAC column chromatography (Sun, X., Chiu, J. F., and He, Q. Y. (2005) Expert Rev. Proteomics, 2:649-657). A fluorescent-labeled” for “A fluorescent-labeled”
as §2

BaF3 parental cells = assay: In vitro cell proliferation potency assay, Cell Titer Glo (Example 902); assay type: cell-based, murine; conditions: Mus musculus
Experimental: (§3) BaF3 parental line was obtained from the DSMZ repository. BaF3 lines transfected with PIM 1 or PIM2 were generated. Mouse IL-3 was purchased from R&D Systems. G418 was purchased from Clontech. Media for BaF3 parental line contained RPMI, 10% FBS, 2 mM L-Glutamine, 2 ng/mL mIL-3. Media for BaF3 PIM1 & 2 lines contained RPMI, 10% FBS, 2 mM L-Glutamine, […]. Media for MM1.S (multiple myeloma cells) line contained RPMI, 10% FBS, 2 mM L-Glutamine.
(§4) BaF3, a murine interleukin-3 dependent pro-B cell line, parental cells, BaF3 PIM1 cells, BaF3 PIM2 cells, and MM1.S (multiple myeloma) cells were seeded at 2 k/well, 5 k/well, 5 k/well, and 10 k/well respectively, in a 384-well plate, at 45 μL/well. Test compound was added at 5 μL/well. BaF3 cells (parental and transfected) were incubated overnight, while MM1.S cells were incubated for 72 hours at 37° C., 5% CO2. Cell Titer Glo Reagent (Promega) was added at 50 μL/well, the plates were incubated for 30 minutes, and their luminescence read on an HT Analyst. IC50/EC50 values for the test compound were calculated.

BaF3 PIM1 cells = assay: as above; assay type: cell-based, murine; conditions: Mus musculus
Experimental: as §3, §4

| Structure (SMILES) | Ki (PIM2) | Ki (PIM1) | Ki (PIM3) | IC50 (BaF3 PIM1 cells; BaF3 line transfected with PIM1, incubated overnight, read-out: Prolif BaF3 PIM1 (IC50)) | IC50 (BaF3 parental cells; BaF3, read-out: Prolif BaF3 IL3 (IC50)) | IC50 (BaF3 PIM1 cells; BaF3, read-out: Prolif BaF3 PIM1 (IC50)) | IC50 (BaF3 parental cells; BaF3 parental line, medium with 2 ng/mL mIL-3, incubated overnight, read-out: Prolif BaF3 IL3 (IC50)) |
| --- | --- | --- | --- | --- | --- | --- | --- |
| Cn1cc(NC(=O)c2nc(-c3c(F)cccc3F)sc2N)cn1 [Example 102, 5-amino-2-(2,6-difluorophenyl)-N-(1-methyl-1H-pyrazol-4-yl)thiazole-4-carboxamide] | 110 nM | 16 nM | 8.8 nM | – | – | – | – |
| Cn1ncc(NC(=O)c2nc(-c3c(F)cccc3F)sc2N)c1NCC1CCNCC1 [Example 105, 5-amino-2-(2,6-difluorophenyl)-N-(1-methyl-5-(piperidin-4-ylmethylamino)-1H-pyrazol-4-yl)thiazole-4-carboxamide] | 148 nM | 4.54 nM | 5.77 nM | – | – | – | – |
| Cn1ncc(NC(=O)c2nc(-c3ccccc3)ccc2N)c1N1CCC(N)CC1 [Example 109, 3-amino-N-(5-(4-aminopiperidin-1-yl)-1-methyl-1H-pyrazol-4-yl)-6-phenylpicolinamide] | 41.1 nM | 0.762 nM | 2.63 nM | – | – | – | – |
| Cn1ncc(NC(=O)c2nc(-c3ccccc3F)ccc2N)c1OC1CCNCC1 [Example 116, 3-amino-6-(2-fluorophenyl)-N-(1-methyl-5-(piperidin-4-yloxy)-1H-pyrazol-4-yl)picolinamide] | 26.2 nM | 4.36 nM | 4.97 nM | – | – | – | – |
| Cn1ncc(NC(=O)c2nc(-c3ccccc3F)ccc2N)c1OCC1CCNCC1 [Example 117, 3-amino-6-(2-fluorophenyl)-N-(1-methyl-5-(piperidin-4-ylmethoxy)-1H-pyrazol-4-yl)picolinamide] | – | – | – | – | > 25000 nM | 4900 nM | – |
| Cn1ncc(NC(=O)c2nc(Cl)cnc2N)c1N1CCC[C@H](N)C1 [Example 123, (S)-3-amino-N-(5-(3-aminopiperidin-1-yl)-1-methyl-1H-pyrazol-4-yl)-6-chloropyrazine-2-carboxamide] | 587 nM | 137 nM | 215 nM | – | – | – | – |
| CN1CCC(c2c(NC(=O)c3nc(-c4c(F)cccc4F)sc3N)cnn2C)CC1 [Example 231, 5-amino-2-(2,6-difluorophenyl)-N-(1-methyl-5-(1-methylpiperidin-4-yl)-1H-pyrazol-4-yl)thiazole-4-carboxamide] | 201 nM | 7.65 nM | 5.26 nM | – | – | – | – |
| Cn1ncc(NC(=O)c2nc(-c3c(F)cccc3F)sc2N)c1C1CCNCC1 [Example 263, 5-amino-2-(2,6-difluorophenyl)-N-(1-methyl-5-(piperidin-4-yl)-1H-pyrazol-4-yl)thiazole-4-carboxamide] | 185 nM | 10.4 nM | 6.12 nM | – | – | – | – |
| Nc1sc(-c2c(F)cccc2F)nc1C(=O)Nc1cnn(CCF)c1 [Example 353, 5-amino-2-(2,6-difluorophenyl)-N-(1-(2-fluoroethyl)-1H-pyrazol-4-yl)thiazole-4-carboxamide] | 38 nM | 11.9 nM | 19 nM | – | – | – | – |
| CCn1ncc(NC(=O)c2nc(-c3ccccc3F)sc2N)c1N1CCC[C@@H](N)CC1 [Example 364, (R)-5-Amino-N-(5-(4-aminoazepan-1-yl)-1-ethyl-1H-pyrazol-4-yl)-2-(2-fluorophenyl)thiazole-4-carboxamide] | 124 nM | 20 nM | 24 nM | – | – | – | – |
| Cn1ncc(NC(=O)c2nc(-c3c(F)cccc3F)sc2N)c1C1CCC(N)CC1 (stereo not drawn) [Example 369, 5-amino-N-(5-(4-aminocyclohexyl)-1-methyl-1H-pyrazol-4-yl)-2-(2,6-difluorophenyl)thiazole-4-carboxamide] | 12.5 nM | 0.462 nM | 0.735 nM | – | – | – | – |

More lines, main results first:

| Ki (PIM2) | Ki (PIM1) | Ki (PIM3) | IC50 (BaF3 PIM1 cells; BaF3 line transfected with PIM1, incubated overnight, read-out: Prolif BaF3 PIM1 (IC50)) | Structure (SMILES) | IC50 (BaF3 parental cells; BaF3, read-out: Prolif BaF3 IL3 (IC50)) | IC50 (BaF3 PIM1 cells; BaF3, read-out: Prolif BaF3 PIM1 (IC50)) | IC50 (BaF3 parental cells; BaF3 parental line, medium with 2 ng/mL mIL-3, incubated overnight, read-out: Prolif BaF3 IL3 (IC50)) |
| --- | --- | --- | --- | --- | --- | --- | --- |
| 20.1 nM | 1.22 nM | 0.575 nM | – | Cn1ncc(NC(=O)c2nc(-c3ccccc3F)sc2N)c1N1CCC[C@H](N)C1 [Example 107, (S)-5-amino-N-(5-(3-aminopiperidin-1-yl)-1-methyl-1H-pyrazol-4-yl)-2-(2-fluorophenyl)thiazole-4-carboxamide] | – | – | – |
| 2.49 nM | 0.246 nM | 0.34 nM | – | Cn1ncc(NC(=O)c2nc(-c3ccccc3F)ccc2N)c1N1CCC[C@@H](N)C1 [Example 112, (R)-3-amino-N-(5-(3-aminopiperidin-1-yl)-1-methyl-1H-pyrazol-4-yl)-6-(2-fluorophenyl)picolinamide] | – | – | – |
| 28.5 nM | – | 3.79 nM | – | Cn1ncc(NC(=O)c2nc(-c3ccccc3F)ccc2N)c1N1CC[C@@H](N)C1 [Example 124, (R)-3-amino-N-(5-(3-aminopyrrolidin-1-yl)-1-methyl-1H-pyrazol-4-yl)-6-(2-fluorophenyl)picolinamide] | – | – | – |
| – | – | – | 258 nM | Cn1ncc(NC(=O)c2nc(-c3c(F)cccc3F)sc2N)c1N1CCC(CN)CC1 [Example 133, 5-amino-N-(5-(4-(aminomethyl)piperidin-1-yl)-1-methyl-1H-pyrazol-4-yl)-2-(2,6-difluorophenyl)thiazole-4-carboxamide] | – | – | 25000 nM |
| 3.13 nM | 0.368 nM | 0.245 nM | – | Cn1ncc(NC(=O)c2nc(-c3ccccc3F)ccc2N)c1N1CCC[C@H](N)CC1 [Example 142, (S)-3-amino-N-(5-(4-aminoazepan-1-yl)-1-methyl-1H-pyrazol-4-yl)-6-(2-fluorophenyl)picolinamide] | – | – | – |
| 581 nM | 22 nM | 34.2 nM | – | Cn1ncc(NC(=O)c2cncc(-c3ccccc3F)n2)c1N1CCC[C@H](N)CC1 [Example 220, (S)—N-(5-(4-aminoazepan-1-yl)-1-methyl-1H-pyrazol-4-yl)-6-(2-fluorophenyl)pyrazine-2-carboxamide] | – | – | – |
| 17.3 nM | 0.897 nM | 2.48 nM | – | Cn1ncc(NC(=O)c2ccc(F)c(-c3c(F)cccc3F)n2)c1N1CCC[C@@H](N)CC1 [Example 238, (R)—N-(5-(4-aminoazepan-1-yl)-1-methyl-1H-pyrazol-4-yl)-6-(2,6-difluorophenyl)-5-fluoropicolinamide] | – | – | – |
| 4.37 nM | 0.096 nM | 0.176 nM | – | CN[C@H]1CCCN(c2c(NC(=O)c3nc(-c4c(F)cccc4F)sc3N)cnn2C)CC1 [Example 328, (S)-5-amino-2-(2,6-difluorophenyl)-N-(1-methyl-5-(4-(methylamino)azepan-1-yl)-1H-pyrazol-4-yl)thiazole-4-carboxamide] | – | – | – |
